Results from US6936602B1, “Benzazepine derivatives, process for the preparation of the same and uses thereof” (Takeda Chemical Industries, Ltd., priority 1999, dated 2005).

Experiments:
human CCR5 = biological target: T1, human CCR5 (Homo sapiens, UniProt P51681); assay: Evaluation of test compounds based on CCR5 antagonistic activity: inhibition of [125I]-RANTES binding to CCR5/CHO cells; conditions: Test Compound 1 μM, 100 pM [125I]-RANTES, room temperature for 40 minutes, read-out: Inhibitory Rate (%)
T1 construct: expressed in transfected cells
T1 sequence (P51681 whole entry): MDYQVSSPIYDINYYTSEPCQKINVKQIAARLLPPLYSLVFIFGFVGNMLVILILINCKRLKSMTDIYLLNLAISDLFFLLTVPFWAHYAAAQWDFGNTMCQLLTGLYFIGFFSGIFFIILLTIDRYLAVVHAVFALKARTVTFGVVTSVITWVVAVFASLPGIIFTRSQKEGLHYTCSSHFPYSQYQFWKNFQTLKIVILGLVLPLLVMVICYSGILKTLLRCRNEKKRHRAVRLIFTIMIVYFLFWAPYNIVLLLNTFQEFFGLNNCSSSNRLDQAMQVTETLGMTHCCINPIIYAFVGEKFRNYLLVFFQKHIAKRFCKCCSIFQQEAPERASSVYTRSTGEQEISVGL

HIV-1 BA-L = assay: Inhibitory effect on HIV-1 infection to MAGI-CCR5 cell (β-galactosidase blue cell count); format: cell-based; conditions: 100 μl medium containing 1.6 μM of Test Compound + 100 μl medium containing 300 PFU of HIV-1 BA-L; MAGI-CCR5 cells; 37° C. for 2 days
Protocol: (5) Inhibitory Effect on HIV-1 Infection to MAGI-CCR5 Cell
The plasmid where β-galactosidase gene was ligated downstream of HIV-1 LTR was introduced into CD4 positive HeLa cell, to which human CCR5 was further introduced to obtain transformant MAGI-CCR5.
By using said transformant MAGI-CCR5, a degree of HIV-1 infection was calculated using β-galactosidase activity (blue color due to decomposition of 5-bromo-4-chloro-3-indolyl-β-D-galactopyranoside) as an index. Specifically, MAGI-CCR5 cells were suspended in DMEM medium containing 10% serum to prepare 5×10^4 cells/ml suspension. To each well of 96 well plate was inoculated 200 μl of the suspension, and the cells were cultivated at 37° C. overnight. The medium was removed by means of suction, and to the residue was added 100 μl of the above medium containing 1.6 μM of Test Compound and 100 μl of the above medium containing 300 PFU of HIV-1 BA-L cells. The cells were cultivated at 37° C. for 2 days. The medium was removed by means of suction. To the residue was added 200 μl of a cell fixative (PBS containing 1% formaldehyde and 0.2% glutaraldehyde), and the mixture was allowed to stand at room temperature for 5 minutes and washed twice with PBS. To the mixture was added 100 μl of staining solution (PBS containing […] and 0.4 mg/ml X-gal), and the mixture was allowed to stand at 37° C. for 50 minutes and washed twice with PBS. The number of blue cells was counted by a microscope and defined as the number of cells infected with HIV-1. According to this method, inhibition rate of HIV-1 infection was determined.

Row | SMILES | inhibition at 1 µM (human CCR5) [%] | Inhibitation Rate (%) (HIV-1 BA-L) | melting point [°C]
1 | CC(C)OCCOc1ccc(-c2ccc3c(c2)C=C(C(=O)Nc2ccc(CN(C)C4CCOCC4)cc2)CCN3C=O)cc1 [Compound 14, 1-formyl-N-[4-[[N-methyl-N-(tetrahydro-2H-pyran-4-yl)amino]methyl]phenyl]-7-[4-(2-propoxy)ethoxyphenyl]-2,3-dihydro-1H-1-benzazepine-4-carboxamide] | 96 | 91 | 187 to 189
2 | CCOCCOc1ccc(-c2ccc3c(c2)C=C(C(=O)Nc2ccc(CN(C)C4CCOCC4)cc2)CCN3CC)cc1 [Compound 16, 7-[4-(2-ethoxyethoxy)phenyl]-1-ethyl-N-[4-[[N-methyl-N-(tetrahydro-2H-pyran-4-yl)amino]methyl]phenyl]-2,3-dihydro-1H-1-benzazepine-4-carboxamide] | 96 | 94 | 114.5 to 116.5
3 | CCCOCCOc1ccc(-c2ccc3c(c2)C=C(C(=O)Nc2ccc(CN(C)C4CCOCC4)cc2)CCN3CC)cc1 [Compound 17, 1-ethyl-N-[4-[[N-methyl-N-(tetrahydro-2H-pyran-4-yl)amino]methyl]phenyl]-7-[4-(2-propoxyethoxy)phenyl)-2,3-dihydro-1H-1-benzazepine-4-carboxamide] | 99 | 94 | 106 to 108
